Data on one compound can be found in PMC8296985, “A Covalent Calmodulin Inhibitor as a Tool to Study Cellular Mechanisms of K-Ras-Driven Stemness” (Frontiers in Cell and Developmental Biology, 2021).

SMILES strings stand for the structures. Where “and” joins values, the source holds several entries; their conditions need not be identical. Equal entries are not always repeated.

Series [1] has as its system HRAS mutant cells (Hs 578T, T24). The series is described as follows: 2D viability assay (alamarBlue), DSS3. The series is classed as cell-based. Conditions: relative to OphA; listed as Calmirasone1. How it is done: (§1) To quantitatively profile the drug sensitivity with a more robust parameter than the IC50 or EC50 values, the drug sensitivity score (DSS) analysis was employed. DSS values are essentially normalized area under the curve (AUC) measures of dose-response inhibition data ([Yadav et al., 2014]). Drug response data files (in Excel) ready for online analysis were prepared according to the example file obtained from the DSS pipeline website, called Breeze^1 ([Potdar et al., 2020]). Either raw fluorescence intensity measurements or normalized % inhibition data (for BRET assay analysis) were uploaded.
DSS3 was employed to emphasize drugs that obtain their response area over a relatively wide dose window, as compared to drugs that show increased response only at the higher end of the concentration range. After logistic fitting of the dose-response inhibition data, the area under the curve (AUC) was determined as the exact solution. A 10% minimal activity threshold (t) was set. The maximum (Cmax) and minimum (Cmin) concentrations were used for screening of the inhibitors, with Cmax = x2 and x1 concentration with minimal activity t. […]

Series [2] deals with NCI-H358, MIA PaCa-2, MDA-MB-231 and A375 3D spheroids. The series is described as follows: 3D spheroid growth benchmarking, DSS3, alamarBlue. In kind it is cell-based. How it is done:
3D spheroid formation assays were performed in 96-well low-attachment, suspension culture plates (cat. no. 655185, Cellstar, Greiner Bio-One) under serum-free condition. About 1,000 (MDA-MB-231, NCI-H358, and MIA PaCa-2) or 2,500 (Hs 578T) cells per well were seeded in 50 μl of either an RPMI medium (cat. no. 52400-025, Gibco, Thermo Fisher Scientific) (MDA-MB-231, A375, and NCI-H358) or DMEM (cat. no. 41965-039, Gibco, Thermo Fisher Scientific) (Hs 578T and MIA PaCa-2), containing 0.5% MethoCult (cat. no. SF H4636, Stemcell technologies), 1x B27 (cat. no. 17504044, Gibco, Thermo Fisher Scientific), 25 ng/ml EGF (cat. no. E9644, Sigma-Aldrich), and 25 ng/ml FGF (cat. no. RP-8628, Thermo Fisher Scientific). Cells were cultured for 3 days and then treated with compounds or vehicle control (DMSO 0.1% v/v in growth medium) for another 3 days. The cells were supplemented with a fresh growth medium on the third day together with the drug treatment. For knockdown experiments, cells were seeded in 12-well plates and treated with either 50 nM scrambled siRNA (cat. no. 1022076, QIAGEN) or indicated concentrations of siRNAs. Next day, cells were collected by trypsinization and re-plated into 96-well plates for 3D spheroid suspension culture.
Spheroid formation efficiency was analyzed by an alamarBlue assay reagent (cat. no. DAL1100, Thermo Fisher Scientific). A 10% final volume of the alamarBlue reagent was added to each well of the plate and incubated for 4 h at 37°C. Then the fluorescence intensity was measured using the FLUOstar OPTIMA plate reader (BMG Labtech, Germany) with an excitation wavelength of 560 ± 5 nm and an emission wavelength of 590 ± 5 nm.
as §1
DSS3 was employed to emphasize drugs that obtain their response area over a relatively wide dose window, as compared to drugs that show increased response only at the higher end of the concentration range. After logistic fitting of the dose-response inhibition data, the area under the curve (AUC) was determined as the exact solution. A 10% minimal activity threshold (t) was set. The maximum (Cmax) and minimum (Cmin) concentrations were used for screening of the inhibitors, with Cmax = x2 and x1 concentration with minimal activity t.

For `CC(C)c1ccc2cc(C(F)(F)F)c(=O)c3c(N4CCCCC4)c(C=O)c(c1)c23` [Compound 1], in series [1], the “lower unspecific toxic effect on HRAS mutant cells as compared to OphA” value is > 40 fold and 40–260 fold. Moreover, the “DSS3 potency relative to K-RasG12C inhibitor AMG-510 in 3D spheroid assays” value in series [2] (relative to AMG-510) is reported as approximately 50%. Further, in series [2] (spheroids grown 72 h then treated 72 h), the “effect on 3D spheroid growth” value was “visibly lower activity”.
